The results in this text go back to patent publication EP0098615A1, “1-Oxadethiacephalosporin compound and antibacterial agent containing the same” (MEIJI SEIKA KAISHA LTD., priority 1982, dated 1984).

The subject of assay [1] is Staphylococcus aureus Smith. Briefly: MIC by serial dilution method on agar plates. The note with it: read-out: Minimum inhibitory concentrations (MIC.). Format: cell-based.
In assay [2] the test system is Staphylococcus aureus 209P JC-1. Briefly: MIC by serial dilution method on agar plates. Format: cell-based. The note with it: read-out: Minimum inhibitory concentrations (MIC.).
Assay [3] has as its system Escherichia coli NIHJ JC-2. Briefly: MIC by serial dilution method on agar plates. It is filed as cell-based.
Assay [4] deals with Klebsiella pneumoniae PCI 602. Briefly: MIC by serial dilution method on agar plates. Format: cell-based.
In assay [5] the test system is Proteus mirabilis GN 79. The assay can be described thus: MIC by serial dilution method on agar plates. Format: cell-based.
Assay [6] relates to Salmonella typhimurium LT-2. Briefly: MIC by serial dilution method on agar plates. It is filed as cell-based. To be noted: Salmonella enterica, read-out: Minimum inhibitory concentrations (MIC.).
The subject of assay [7] is Proteus vulgaris GN 76. The assay can be described thus: MIC by serial dilution method on agar plates. It is filed as cell-based.
The test system of assay [8] is Protues rettgeri GN 624. The assay can be described thus: MIC by serial dilution method on agar plates. It is filed as cell-based. To be noted: read-out: Minimum inhibitory concentrations (MIC.).
For assay [9], the system named is Serratia marcescens No. 2. Briefly: MIC by serial dilution method on agar plates. It is filed as cell-based.
Assay [10] deals with Escherichia coli No. 29. The assay can be described thus: Curative effect of oral administration in infected mice (survival). To be noted: three mice in each group, i.p. inoculum 3.25 x 10^5 CFU/mouse, 7 days observation. It is filed as in vivo. From the text: Thus, some tests were made to evaluate the curative effects of the new compound of this invention in therapeutic treatment of bacterial infections when the new compound was orally given to mice (average body weight 20 g) which had been infected with Escherichia coli No. 29. In these tests for therapeutic treatment of the bacterial infection, mice (three mice in each group) were inoculated intraperitoneally with Escherichia coli No. 29 at an inoculum dose of 3.25 x 10^5 CFU/mouse and then immediately treated by oral administration of the test compound. For the subsequent 7 days, the mice were kept under observation and the number of surviving mice was counted.

Where [11] appears, read: Staphylococcus aureus Smith, serial dilution on agar plates.
[12] abbreviates: Staphylococcus aureus 209P JC-1, serial dilution on agar plates.
[13] abbreviates: NIHJJC2, Escherichia coli NIHJ JC-2, serial dilution on agar plates, read-out: Minimum inhibitory concentrations (MIC.).
Setting [14] is: PCI602, Klebsiella pneumoniae PCI 602, serial dilution on agar plates, read-out: Minimum inhibitory concentrations (MIC.).
Setting [15] is: GN79, Proteus mirabilis GN 79, serial dilution on agar plates, read-out: Minimum inhibitory concentrations (MIC.).
Setting [16] is: Salmonella typhimurium LT-2, serial dilution on agar plates.
Setting [17] is: GN76, Proteus vulgaris GN 76, serial dilution on agar plates, read-out: Minimum inhibitory concentrations (MIC.).
Where [18] appears, read: Protues rettgeri GN 624, serial dilution on agar plates.
The mark [19] stands for this setting: Serratia marcescens No. 2, serial dilution on agar plates, read-out: Minimum inhibitory concentrations (MIC.).

In brackets after ≈: the same amount, converted by molar mass. Like-named read-outs stand apart in the source and are kept apart here.

For `CSC1=C(C(=O)O)N2C(=O)C(NC(=O)Cc3ccsc3)C2OC1` (centres unmarked) [Example 2(b), 7-(3-thienylacetamido)-1-oxa-1-dethia-3-methylthio-3-cephem-4-carboxylic acid], the MIC is 0.1 µg/mL (≈ 0.282 µM) in assay [1] (setting [11]); 0.05 µg/mL (≈ 0.141 µM) in assay [2] (setting [12]); 6.25 µg/mL (≈ 17.6 µM) in [3] (setting [13]); 1.56 µg/mL (≈ 4.4 µM) in assay [4] (setting [14]); 25 µg/mL (≈ 70.5 µM) in [5] (setting [15]); 1.56 µg/mL (≈ 4.4 µM) in assay [6] (setting [16]). Also, the MIC in [7] (setting [17]), in assay [8] (setting [18]) and in assay [9] (setting [19]) was greater than 100 µg/mL throughout.
On to `CSC1=C(C(=O)O)N2C(=O)C(NC(=O)C(C(=O)O)c3ccsc3)C2OC1` (centres unmarked) [Example 4(b), 7-[2-(3-thienyl)-2-carboxyacetamido]-1-oxa-1-dethia-3-methylthio-3-cephem-4-carboxylic acid], for which the MIC in assay [1] (setting [11]) came to 3.13 µg/mL (≈ 7.86 µM); in assay [2] (setting [12]), 1.56 µg/mL (≈ 3.92 µM); in assay [3] (setting [13]), 0.78 µg/mL (≈ 1.96 µM); in assay [4] (setting [14]), 0.39 µg/mL (≈ 0.979 µM); in assay [5] (setting [15]), 1.56 µg/mL (≈ 3.92 µM); in assay [6] (setting [16]) it was 0.2 µg/mL (≈ 0.502 µM). Moreover, the MIC in assay [7] (setting [17]) was found to be 50 µg/mL (≈ 125 µM); in assay [8] (setting [18]), 1.56 µg/mL (≈ 3.92 µM); in [9] (setting [19]) it was 0.39 µg/mL (≈ 0.979 µM).
Regarding `CO/N=C(\C(=O)NC1C(=O)N2C(C(=O)O)=C(SC)COC12)c1csc(N)n1` (centres unmarked) [Example 6(b), 7-[2-(2-amino-4-thiazolyl)-2-methoxy-iminoacetamido]-1-oxa-1-dethia-3-methyl-thio-3-cephem-4-carboxylic acid tri-fluoroacetate], the MIC turned out to be 3.13 µg/mL (≈ 7.57 µM) in assay [1] (Staphylococcus aureus); 1.56 µg/mL (≈ 3.77 µM) in assay [2] (Staphylococcus aureus, 209P); 0.78 µg/mL (≈ 1.89 µM) in [3] (Escherichia coli, NIHJJC2, read-out: Minimum inhibitory concentrations (MIC.)); 0.1 µg/mL (≈ 0.242 µM) in assay [4] (Klebsiella pneumoniae, PCI602, read-out: Minimum inhibitory concentrations (MIC.)); 0.39 µg/mL (≈ 0.943 µM) in assay [5] (Proteus mirabilis, GN79, read-out: Minimum inhibitory concentrations (MIC.)); 0.05 µg/mL (≈ 0.121 µM) in [6] (TYPHIMURIUM). The MIC in assay [7] (Proteus vulgaris, GN76, read-out: Minimum inhibitory concentrations (MIC.)) is greater than 100 µg/mL; in [8], 3.13 µg/mL (≈ 7.57 µM); in [9] (Serratia marcescens, NO.2, read-out: Minimum inhibitory concentrations (MIC.)), 0.78 µg/mL (≈ 1.89 µM). In addition, the “number of surviving mice” value stood at 1 in [10] (0.1 mg/mouse oral), 3 in assay [10] (1 mg/mouse oral), 3 in [10] (5 mg/mouse oral) and 3 in [10] (10 mg/mouse oral).
Take `CSC1=C(C(=O)O)N2C(=O)C(NC(=O)C(C(=O)O)c3cccs3)C2OC1` (centres unmarked) [Example 3(b), 7-[2-(2-thienyl)-2-carboxyacetamide]-1-oxa-1-dethia-3-methylthio-3-cephem-4-carboxylic acid]: the MIC in assay [1] (setting [11]) amounted to 0.39 µg/mL (≈ 0.979 µM); in assay [2] (setting [12]), 0.2 µg/mL (≈ 0.502 µM); in [3] (setting [13]), 0.78 µg/mL (≈ 1.96 µM); in [4] (setting [14]), 0.78 µg/mL (≈ 1.96 µM); in [5] (setting [15]) it was 6.25 µg/mL (≈ 15.7 µM); in assay [6] (setting [16]), 0.78 µg/mL (≈ 1.96 µM). Also, the MIC in assay [7] (setting [17]) came to 50 µg/mL (≈ 125 µM); in assay [8] (setting [18]), 3.13 µg/mL (≈ 7.86 µM); in [9] (setting [19]), 3.13 µg/mL (≈ 7.86 µM).
As to `CSC1=C(C(=O)O)N2C(=O)C(NC(=O)Cc3cccs3)C2OC1` (centres unmarked) [Example 1(b), 7-(2-thienylacetamido)-1-oxa-1-dethia-3-methylthio-3-cephem-4-carboxylic acid], the MIC stood at 0.2 µg/mL (≈ 0.564 µM) in assay [1] (setting [11]); 0.2 µg/mL (≈ 0.564 µM) in assay [2] (setting [12]); 6.25 µg/mL (≈ 17.6 µM) in assay [3] (setting [13]); 1.56 µg/mL (≈ 4.4 µM) in [4] (setting [14]); 25 µg/mL (≈ 70.5 µM) in [5] (setting [15]); 1.56 µg/mL (≈ 4.4 µM) in [6] (setting [16]). The MIC in assay [7] (setting [17]), in assay [8] (setting [18]) and in assay [9] (setting [19]) was greater than 100 µg/mL throughout.
Regarding `COC1=C(C(=O)O)N2C(=O)[C@@H](NC(=O)[C@H](N)C3=CCC=CC3)[C@H]2SC1` [Cefroxadine, reference compound], the MIC in assay [1] (setting [11]) turned out to be 1.56 µg/mL (≈ 4.27 µM); in assay [2] (setting [12]), 1.56 µg/mL (≈ 4.27 µM); in assay [3] (setting [13]), 3.13 µg/mL (≈ 8.57 µM); in assay [4] (setting [14]), 3.13 µg/mL (≈ 8.57 µM); in [5] (setting [15]), 50 µg/mL (≈ 137 µM); in [6] (setting [16]) it was 6.25 µg/mL (≈ 17.1 µM). Further, the MIC in [7] (setting [17]) is greater than 100 µg/mL; in [8] (setting [18]), greater than 100 µg/mL; in [9] (setting [19]), 100 µg/mL (≈ 274 µM). The “number of surviving mice” value in [10] (0.1 mg/mouse oral) is 0; in assay [10] (1 mg/mouse oral) it was 0; in assay [10] (5 mg/mouse oral) it was 3; in assay [10] (10 mg/mouse oral), 3.
